According to patent US7427408B2, “Quorum sensing and biofilm formation” (priority 2002, dated 2008):

What was measured:
[1] = tested on: S. mutans biofilms (wildtype and luxS mutant); assay: Treatment of in vitro biofilm with SDS (detergent resistance); format: cell-based, Streptococcus mutans; details: 1% SDS, shaken at 150 rpm for one hour
Protocol: Three samples of wildtype and mutant biofilms grown on glass coverslips were shaken at 150 rpm for one hour. The OD600 of the resulting supernatants were compared.
(§1) Biofilms of S. mutans were grown as follows. Individual sterile culture dishes were filled with 2.5 mL of brain heart infusion broth supplemented with 1% (w/v) sucrose. Next, a sterile 18 mm glass microscope cover slip was added to each dish and the culture dish was covered. Each sample was then inoculated with a defined volume of overnight culture. The dishes were incubated anaerobically at 37° C. overnight.
Biofilms were grown overnight using previously described conditions. For treatment with SDS, cover-slips were removed from overnight incubation and rinsed briefly. These were then placed into a fresh culture dish and 2mL of sterile, 1% (w/v) SDS solution was added to each dish. The biofilms were placed on a standard shaker set at 150 rpm for one hour at room temperature. […] These samples were measured for their OD600 values. […]
(§2) As biofilms are known to be very resistant to detergents and biocides, we were also interested to determine if this property was influenced by the luxS mutation. […] These supernatants were then checked by microscopy to ensure that cells were not clumped, and subsequently, measured for the OD600. […]

[2] = tested on: wildtype S. mutans biofilms; assay: Treatment of in vitro wildtype biofilm with ampicillin; format: cell-based, Streptococcus mutans; details: 16 hours
Protocol: as §1
Biofilms were grown overnight using previously described conditions. For treatment with SDS, cover-slips were removed from overnight incubation and rinsed briefly. These were then placed into a fresh culture dish and 2mL of sterile, 1% (w/v) SDS solution was added to each dish. The biofilms were placed on a standard shaker set at 150 rpm for one hour at room temperature. Next, supernatant samples were checked at 40× magnification to confirm that cells were fully individualized and not connected in chains. These samples were measured for their OD600 values. For treatment with antibiotics, biofilms were again grown under standard conditions overnight. […]
as §2

[3] = tested on: V. harveyi BB170 (AI-2 reporter strain); assay: AI-2 luminescence reporter assay of S. mutans conditioned media; format: cell-based, Vibrio harveyi; details: S. mutans incubated 3 hours in AB media with sucrose at 1% final concentration
Protocol: S. mutans was grown and assayed as described in Materials and Methods. Cells were grown overnight and resuspended to an OD600 of 0.4 in reporter assay (AB) media and incubated with aeration for 3 hours at 37° C. One sample was incubated in AB alone, while the other had sucrose added to a final concentration of 1%.
The AI-2 luminescence reporter assay was performed essentially as described (38), with the following modifications. To obtain cell free conditioned media, S. mutans was grown overnight as described. Stationary phase cells were resuspended in AB media to an OD600 of 0.4. Cells were then incubated at 37° C. with aeration for 3 hrs. […]
To determine luminescence, an overnight culture of V. harveyi BB170 was diluted 1:1000 into fresh AB medium and 180 μL of cells was added to each 1.5 mL microfuge tube. […]
To determine levels of background luminescence, a sample containing 200 μL of 1:1000 diluted V. harveyi was also included. […] All samples were measured hourly until peak induction at the 3 hr time point. Measurements were collected using a TD 20/20 luminometer and expressed as arbitrary luminescence units.
Since S. mutans is an acidogenic bacterium, pH readings were taken to ensure that there were no negative effects due to lowered pH.

Question: With `CCCCCCCCCCCCOS(=O)(=O)[O-].[Na+]` [SDS] as the compound, how does the “OD600 of supernatant, wildtype relative to luxS mutant” value [1] read?
Answer: about 6 fold

Question: Which “cells surviving ampicillin treatment” value ([2]; 50 μg/mL ampicillin) does the source give for `CC1(C)S[C@@H]2[C@H](NC(=O)[C@H](N)c3ccccc3)C(=O)N2[C@H]1C(=O)O` [ampicillin] here?
Answer: < 1%

Question: What about the “cells surviving ampicillin treatment” value ([2]; 500 μg/mL ampicillin) of the same compound?
Answer: none survived

Question: `OC[C@H]1O[C@@](CO)(O[C@H]2O[C@H](CO)[C@@H](O)[C@H](O)[C@H]2O)[C@@H](O)[C@@H]1O` [sucrose] was tested. Which “luminescence (AI-2 induction) relative to background” value [3] did it give?
Answer: potent reduction in luminescence to below background values
